Laboratory results taken from patent US10561666B2, “Amido compounds as RORγt modulators and uses thereof” (New York University, priority 2010, dated 2020).

Tests used:
mouse Th17 polarization = test: Mouse Th17 polarization assay (IL-17a producing cells); type: cell-based; conditions: for IC50: naive mouse CD4 T cells, TGFβ and IL6, compounds added Day 1, analyzed Day 4, IL-17a producing cells, read-out: Th 17 IC50; for mouse Th17 cell differentiation, as measured by IL17a production: 20 μM, compared to DMSO treated cells, FACS (FIG. 3)
Description: Effects of compound derivatives at various concentrations on mouse Th17 polarization. Percentage of DMSO treated IL-17a producing cells was set at 100. Naive mouse CD4 T cells (CD25^−, CD62L^+, and CD44^int-high) were sorted and cultured with CD3/CD28 stimulatory antibodies in the presence of TGFβ (0.1 ng/ml) and IL6 (20 ng/ml). Compounds were added on Day 1 and cells were analyzed on Day 4. For intracellular cytokine staining, cells were incubated for 5 h with phorbol ester (50 ng/ml; Sigma), ionomycin (500 ng/ml; Sigma) and GolgiStop (BD). When needed, surfaces were stained by incubation for 15 min on ice with PECy7-conjugated CD4 (BD Biosciences). The Cytofix/Cytoperm buffer set (BD) was used for intracellular staining. Cells were fixed and made permeable for 30 min on ice and were stained for 30 min on ice in permeabilization buffer with Alexa647-conjugated anti-IL17 (eBioscience) and PE-conjugated anti-IFNg (eBioscience). An LSR II (BD Biosciences) and FlowJo software (Tree Star) were used for flow cytometry. RORg IC50 value acquired from the S2 cell reporter assay is listed for comparison.
(§1) Naive CD4 T cells (CD25^−, CD62L^+, and CD44^int-high) were sorted and cultured with CD3/CD28 stimulatory antibodies in the presence of TGFβ (0.1 ng/ml) and IL6 (20 ng/ml). Compounds were added on Day 1 and cells were analyzed on Day 4. For intracellular cytokine staining, cells were incubated for 5 h with phorbol ester (50 ng/ml; Sigma), ionomycin (500 ng/ml; Sigma) and GolgiStop (BD). When needed, surfaces were stained by incubation for 15 min on ice with PECy7-conjugated CD4 (BD Biosciences). The Cytofix/Cytoperm buffer set (BD) or FoxP3 staining kit (eBioscience) were used for intracellular staining. Cells were fixed and made permeable for 30 min on ice and were stained for 30 min on ice in permeabilization buffer with Alexa647-conjugated anti-IL17 (eBioscience), PE-conjugated anti-IFNg (eBioscience), and/or PE-conjugated anti-FoxP3 (eBioscience). An LSR II (BD Biosciences) and FlowJo software (Tree Star) were used for flow cytometry.

RORγt = RORγt (Mus musculus, UniProt P51450, T352K); test: RORγt S2 cell Gal4-luciferase reporter assay; conditions: for Emax: read-out: Efficacy (%)
Chain of RORγt (P51450 with tags, fused parts or gaps T352K): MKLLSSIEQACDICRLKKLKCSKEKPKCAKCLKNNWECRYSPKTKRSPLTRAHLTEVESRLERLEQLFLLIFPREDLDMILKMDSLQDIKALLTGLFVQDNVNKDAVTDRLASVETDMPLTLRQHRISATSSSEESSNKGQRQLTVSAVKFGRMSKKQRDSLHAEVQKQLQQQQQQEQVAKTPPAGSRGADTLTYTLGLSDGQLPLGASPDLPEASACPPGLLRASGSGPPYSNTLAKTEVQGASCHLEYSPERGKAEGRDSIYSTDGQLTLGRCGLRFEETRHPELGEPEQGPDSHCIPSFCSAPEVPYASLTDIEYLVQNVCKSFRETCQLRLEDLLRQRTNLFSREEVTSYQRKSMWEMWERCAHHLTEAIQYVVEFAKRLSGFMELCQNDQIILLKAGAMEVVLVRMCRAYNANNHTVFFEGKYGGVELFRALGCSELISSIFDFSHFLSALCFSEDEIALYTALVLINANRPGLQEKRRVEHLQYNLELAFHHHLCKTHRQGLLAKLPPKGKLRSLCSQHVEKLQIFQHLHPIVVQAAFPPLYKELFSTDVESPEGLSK
Description: Methods: The Drosophila S2 cell line was originally purchased from Invitrogen and was maintained in Schneider's medium supplemented with 10% heat-inactivated bovine fetal calf serum and antibiotics (Invitrogen). […] The resulting chimeric gene was subcloned into the copper inducible pMT/V5-His A vector (available from Invitrogen).
In order to generate stable cell lines, cells were co-transfected with pMT-G4DBD-RORγt, pMT-G4DBD-RORα, pMT-G4DBD-DHR3, or pMT-G4DBDVP16 and pHygro plasmids (Invitrogen) and screened for resistant colonies in the presence of hygromycin (0.3 mg/mL).
Methods: 600 G4DBD-RORγ/γt-luc reporter (#25) or G4DBD-VP16-luc reporter cells were distributed into each well of 1,536-well white bottom plates in 4 μl S2 cell culture volume containing hygromicin (300 μg/ml) and puromycin (2 μg/ml). […] After one-hour incubation, 1 μl of culture medium solution containing copper sulfate (to final 0.7 mM) and 10 μM RORγ/γt antagonists were added to each well. After 20-hour incubation at ambient temperature, 1.5 μl firefly luciferase detection mix was added and the luciferase activities were measured in 10 min. ViewLux luminometers were used for measuring luciferase signal.
Since their cognate DNA binding sites were not well characterized, the DNA binding domains (DBD) of RORγ/γt, RORα (mouse homolog for POPγ), and DHR3 (Drosophila orthologue for ROR family proteins) were replaced with the heterologous yeast GAL4 DBD. The transcriptionally active domain of general transcriptional activator VP16 was also fused with GAL4 DBD. The GAL4 fusion constructs were placed under the control of a copper inducible promoter, and stable S2 cell lines with genomic integration of these four reporter constructs were generated. The copper inducible promoter ensures tight regulation of GAL4-fusion protein expression and it allows small molecules to get into the cells prior to protein induction, thus increasing their effects on GAL4 reporters. The stable reporter cell lines also encode the firefly luciferase reporter, whose expression is regulated by five copies of the GAL4 binding site enhancer (UAS), along with the pol III-driven Renilla luciferase reporter.
A cell-based reporter assay was used to detect RORγt-mediated activity. This assay, called RORγt□ employed Drosophila Schneider cells that were stably transfected with two vectors: a gene expressing a fusion of the Gal4 DNA binding domain and RORγt transactivation domain under the control of the metallothionine promoter and a Photinus luciferase reporter regulated by the Gal4 binding site enhancer, UAS. […] Cells (600/well) were dispensed into white solid 1536-well plates (Greiner) using a solenoid-based dispenser. Following transfer of 23 nL compound or DMSO vehicle by a pin tool, the plates were incubated 1 hr at ambient temperature, and 1 uL/well copper sulfate (700 uM final concentration) was added. The plates were centrifuged 15 s at 1000 RPM and incubated 20 hr at ambient temperature. After addition of 1.5 uL Photinus luciferase detection reagent, the plates were incubated 10 min at ambient temperature and then read by a ViewLux (Perkin Elmer) to detect luminescence. […] Efficacy is expressed as % of the maximal response of control inhibitor (Digoxin), set at 100%.

Th1 differentiation = test: Mouse Th1 differentiation counter-screen (IFNγ production); type: cell-based; conditions: 20 μM, naive CD4 T cells, IL12 and IL2 (FIG. 4)
Description: as §1
For Th1 differentiation, IL12 (10 ng/ml) and IL2 (10 U) was added to naive CD4 T cell cultures instead of TGFβ and IL6.

[1] = target: T1, recombinant human RORγ LBD (Homo sapiens, UniProt P51449); test: In vitro competition assay, fluorescence polarization with labeled 25-hydroxycholesterol; type: binding; conditions: various concentrations
T1 construct: recombinant human RORγ LBD was loaded with fluorescently-labeled 25-hydroxycholesterol
T1 sequence (P51449 269-508 limits assumed): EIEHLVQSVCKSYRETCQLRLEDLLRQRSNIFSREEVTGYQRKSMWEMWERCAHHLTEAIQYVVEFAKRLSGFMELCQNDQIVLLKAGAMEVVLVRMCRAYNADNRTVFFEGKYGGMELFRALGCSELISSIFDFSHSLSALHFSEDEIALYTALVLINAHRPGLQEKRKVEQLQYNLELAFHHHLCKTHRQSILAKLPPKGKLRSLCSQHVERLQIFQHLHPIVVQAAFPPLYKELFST
Excerpt: The presence of increasing concentrations of NCGC00166547 was correlated with displacement of the fluorescently-labeled 25-hydroxycholesterol from the LBD.

[2] = system: human Th17 cell differentiation; test: Human Th17 cell differentiation of naive cord blood T cells; type: cell-based; conditions: IL2, IL23, IL1β, TGFβ, six days (FIG. 6B)
Description: Flow cytometry of IL-17a and IFN-γ production by cord blood naive CD4^+T cells (CD45RO^−CD45RA^+CD3^+CD4^+CD25^−HLA-DR^−)transduced with RORαd-IRES-GFP or RORγt-IRES-GFP on day 1 and analyzed on day 6. GFP expressing cells were gated for analysis. […] Flow cytometry of IL-17a and IFN-γ production by human naive cord blood T cells (CD45RO^−D45RA^+CD3^+CD4^+CD25^−HLA-DR^−), which were cultured for six days in presence of IL2, IL23 and IL1β, and with various concentrations of TGFβ (ng/ml). DMSO or N2 was added 16 hours after the cytokine addition.
The results depict flow cytometry of IL-17a and IFN-γ production by cord blood naive CD4^+ T cells (CD45RO^−CD45RA^+CD3^+CD4^+CD25^−HLA-DR^−)transduced with human RORαd-IRES-GFP or human RORγt-IRES-GFP on day 1 and analyzed on day 6. GFP expressing cells were gated for analysis. […] The results depict flow cytometry of IL-17a and IFN-γ production by human naive cord blood T cells (CD45RO^−D45RA^+CD3^+CD4^+CD25^−HLA-DR^−), which were cultured for six days in the presence of IL2, IL23 and ILβ, and with various concentrations of TGFβ (ng/mL). […] IL-17a-APC (eBio64CAP17 eBioscience) and IFN-γ-PECy7 (45.B3 eBioscience) were used for analysis.

[3] = system: Human memory (CD45RO+CD45RA−CD3+CD4+CCR6+CD161+) cells; test: Human memory Th17 cell maintenance (IL-17a / IFN-γ staining); type: cell-based; conditions: 3 uM, 6 days
Excerpt: Intracellular staining for IFN-γ or IL-17a in memory CD4^+T cells from multiple donors, assessed on day 6. Each symbol (n=11 or 9, respectively) indicates a separate donor.

[4] = IC50(μM), Drosophila S2 cells, Gal4-RORγt luciferase reporter, 20 hr
[5] = S2 cell RORg IC50 μM, S2 cell reporter assay, listed for comparison

Row | IC50 (mouse Th17 polarization) | Emax (RORγt) | IC50 (RORγt; [4]) | IC50 (RORγt; [5]) | Structure (SMILES) | other results
1 | > 20 µM |  | > 50 µM | > 20 µM | COc1cc(O)c(C(CC(=O)N2CC(C)NC(C)C2)c2ccc3c(c2)OCO3)c(OC)c1 (stereo not drawn) [Compound 42] | 
2 | 1 to 10 µM | 97% | 1 to 10 µM | 1 to 10 µM | COc1cc(O)c(C(CC(=O)N2CCCC(C)C2)c2ccc(C)cc2)c(OC)c1 (stereo not drawn) [Compound 57] | 
3 | > 20 µM | 95.4% | 1 to 10 µM | 1 to 10 µM | COc1cc(O)c(C(CC(=O)N2CCCC(C)C2)c2ccccc2)c(OC)c1 (stereo not drawn) [Compound 61] | 
4 | > 20 µM | 93.5% | 1 to 10 µM | 1 to 10 µM | COc1cc(O)c(C(CC(=O)N2CCCC(C)C2)c2ccccc2C)c(OC)c1 (stereo not drawn) [Compound 63] | 
5 | > 20 µM | 45.6% | 11 to 50 µM | > 20 µM | COc1ccc(C(CC(=O)N2CCCC(C)C2)c2c(O)cc(OC)cc2OC)c(OC)c1 (stereo not drawn) [Compound 69] | 
6 | < 1 µM | 96.8% | 1 to 10 µM | 1 to 10 µM | COc1cc(O)c(C(CC(=O)N2CC(C)CC(C)C2)c2ccc(N(C)C)cc2)c(OC)c1 (stereo not drawn) [Compound 72] | 
7 | < 1 µM | 93.8% | 1 to 10 µM | 1 to 10 µM | COc1cc(O)c(C(CC(=O)N2CC(C)CC(C)C2)c2ccc(O)cc2)c(OC)c1 (stereo not drawn) [Compound 75] | 
8 | < 1 µM | 95.4% | < 1 µM | 1 to 10 µM | COc1cc(O)c(C(CC(=O)N2CC(C)CC(C)C2)c2ccc3c(c2)OCCO3)c(OC)c1 (stereo not drawn) [Compound 76] | 
9 | < 1 µM | 96.4% | 1 to 10 µM | 1 to 10 µM | COc1cc(OC)c(C(CC(=O)N2CC(C)CC(C)C2)c2ccc3c(c2)OCO3)c(OC)c1 (stereo not drawn) [Compound 134] | 
10 | 1 to 10 µM | 96.5% | 1 to 10 µM | 1 to 10 µM | COCOc1cc(OC)cc(OC)c1C(CC(=O)N1CC(C)CC(C)C1)c1ccc2c(c1)OCO2 (stereo not drawn) [Compound 135] | 
11 | 1 to 10 µM | 90% | 1 to 10 µM | 1 to 10 µM | COc1cc(OC)c(C(CC(=O)N2CC(C)CC(C)C2)c2ccc3c(c2)OCO3)c(OCC#N)c1 (stereo not drawn) [Compound 136] | 
12 | > 20 µM | 98.5% | 11 to 50 µM | 11 to 20 µM | COc1cc(OC)c(C(CC(=O)N2CC(C)CC(C)C2)c2ccc3c(c2)OCO3)c(OCC(N)=O)c1 (stereo not drawn) [Compound 137] | 
13 |  |  |  |  | COc1cc(O)c(C(CC(=O)N2CCCCC2)c2ccc3c(c2)OCO3)c(OC)c1 (stereo not drawn) [NCGC00166488] | mouse Th17 cell differentiation, as measured by IL17a production (mouse Th17 polarization): suppress mouse Th17 cell differentiation
14 |  |  |  |  | COc1cc(O)c(C(CC(=O)N2CCCC(C)C2)c2ccc3c(c2)OCO3)c(OC)c1 (stereo not drawn) [NCGC00166547] | mouse Th17 cell differentiation, as measured by IL17a production (mouse Th17 polarization): suppress mouse Th17 cell differentiation; Th1 differentiation, as measured by IFNγ production (Th1 differentiation): does not inhibit Th1 differentiation; binding to human RORγt (displacement of fluorescently-labeled 25-hydroxycholesterol) [1]: directly bind to human RORγt
15 |  |  |  |  | COc1cc(O)c(C(CC(=O)N2C[C@H](C)C[C@H](C)C2)c2ccc3c(c2)OCO3)c(OC)c1 (stereo partly drawn) [NCGC00238427] | concentration at which human Th17 cell differentiation is inhibited [2]: ≤ 1 µM; IL-17a expression in human memory Th17 cells ([3]; multiple donors, IL-17a+IFN-γ+/−, p=0.02 (FIG. 7)): inhibits human Th17 cell memory cells expression of IL-17a; IL-17a−IFN-γ+ memory CD4+ T cells, with versus without compound ([3]; two-tailed unpaired Student's t test (FIG. 7)): not significant

Row | Structure (SMILES) | IC50 (mouse Th17 polarization) | Emax (RORγt) | IC50 (RORγt; [4]) | IC50 (RORγt; [5]) | other results
16 | COc1cc(O)c([C@@H](CC(=O)N2CC(C)CC(C)C2)c2ccc3c(c2)OCO3)c(OC)c1 (single isomer, unassigned; (-)) [Compound 35] | < 1 µM | 91% |  |  | 
17 | COc1cc(O)c(C(CC(=O)N2CC(C)CC(C)C2)c2ccc3c(c2)OCO3)c(OC)c1 (stereo not drawn) [Compound 22] | < 1 µM | 97.7% |  |  | 
18 | COc1cc(O)c(C(CC(=O)N2CCCC(C(F)(F)F)C2)c2ccc3c(c2)OCO3)c(OC)c1 (stereo not drawn) [Compound 43] | 1 to 10 µM |  |  |  | 
19 | COc1ccc(C(CC(=O)N2CCCC(C)C2)c2c(O)cc(OC)cc2OC)cc1 (stereo not drawn) [Compound 60] | 1 to 10 µM | 91.7% | 1 to 10 µM | 1 to 10 µM | 
20 | COc1cc(O)c(C(CC(=O)N2CC(C)CC(C)C2)c2ccc(C)cc2)c(OC)c1 (stereo not drawn) [Compound 73] | < 1 µM |  |  |  | 
21 | COc1ccc(C(CC(=O)N2CC(C)CC(C)C2)c2c(O)cc(OC)cc2OC)cc1 (stereo not drawn) [Compound 74] | < 1 µM |  |  |  | 
22 | COc1ccc(C(CC(=O)N2CCCC(C)C2)c2ccc3c(c2)OCO3)c(O)c1 (stereo not drawn) [Compound 115] | > 20 µM |  |  |  | 
23 | COc1cc(OC)c(C(CC(=O)N2CCCC(C)C2)c2ccc3c(c2)OCO3)c(OC)c1 (stereo not drawn) [Compound 120, 3-(Benzo[d][1,3]dioxol-5-yl)-1-(3-methylpiperidin-1-yl)-3-(2,4,6-trimethoxyphenyl)propan-1-one] | 1 to 10 µM |  |  |  | 
24 | COc1cccc(O)c1C(CC(=O)N1CCCC(C)C1)c1ccc2c(c1)OCO2 (stereo not drawn) [Compound 121] | > 20 µM |  |  |  | 
25 | CC1CC(C)CN(C(=O)CC(c2ccc3c(c2)OCO3)c2c(O)ccc3ccccc23)C1 (stereo not drawn) [Compound 138] | 1 to 10 µM |  |  |  | 
